Measured values: ChEMBL document CHEMBL3885881, “DrugMatrix”

Species: Rattus norvegicus
Experiment: DrugMatrix - Regimen: Daily Repeat
Type: toxicity, organism-based, Sprague-Dawley
Design: regimen Daily Repeat, gender Male, age 6-8 weeks
Settings: in vivo, po, 80 mg/kg, route oral GAVAGE, dose level High, vehicle .5 % CMC; for ABSOLUTE BASOPHIL / ABSOLUTE EOSINOPHIL / ABSOLUTE LYMPHOCYTE / ABSOLUTE MONOCYTE / ABSOLUTE SEGMENTED NEUTROPHIL / BASOPHIL / EOSINOPHIL / ERYTHROCYTE COUNT / HEMATOCRIT / HEMOGLOBIN / LEUKOCYTE COUNT / LYMPHOCYTE / MEAN CORPUSCULAR HEMOGLOBIN / MEAN CORPUSCULAR HEMOGLOBIN CONCENTRATION / MEAN CORPUSCULAR VOLUME / MONOCYTE / NEUTROPHIL / PLATELET COUNT: tissue Blood; for ALANINE AMINOTRANSFERASE / ALBUMIN / ALKALINE PHOSPHATASE / ASPARTATE AMINOTRANSFERASE / BLOOD UREA NITROGEN / CHLORIDE / CHOLESTEROL / CREATINE PHOSPHOKINASE / CREATININE / GLUCOSE / LACTATE DEHYDROGENASE / LIPASE / PHOSPHORUS / POTASSIUM / SODIUM / TOTAL BILIRUBIN / TOTAL PROTEIN / URIC ACID: tissue Plasma

`O=c1cc(-c2ccccc2)oc2c1ccc1ccccc12` [ALPHA-NAPHTHOFLAVONE] showed an ABSOLUTE BASOPHIL (120 h, time 5 day) of 170 cells/µL, an ABSOLUTE EOSINOPHIL (120 h, time 5 day) of 42.5 cells/µL and an ABSOLUTE LYMPHOCYTE (120 h, time 5 day) of 11500 cells/µL. The ABSOLUTE MONOCYTE (120 h, time 5 day) was 230 cells/µL, the ABSOLUTE SEGMENTED NEUTROPHIL (120 h, time 5 day) was 1790 cells/µL and the BASOPHIL (120 h, time 5 day) was 1.35%. For the same compound, the EOSINOPHIL (120 h, time 5 day) was 0.35%, the “ERYTHROCYTE COUNT” value (120 h, time 5 day) was 7.43 x10E6/uL and the HEMATOCRIT (120 h, time 5 day) was 46.52%. The HEMOGLOBIN (120 h, time 5 day) was 15.82 G/DL, the “LEUKOCYTE COUNT” value (120 h, time 5 day) was 13.81 x10E3/uL and the LYMPHOCYTE (120 h, time 5 day) was 82.92%. For the same compound, the “MEAN CORPUSCULAR HEMOGLOBIN” value (120 h, time 5 day) was 21.35 pg, the “MEAN CORPUSCULAR HEMOGLOBIN CONCENTRATION” value (120 h, time 5 day) was 34.08 G/DL and the “MEAN CORPUSCULAR VOLUME” value (120 h, time 5 day) was 62.67 fL. The MONOCYTE (120 h, time 5 day) was 1.57%, the NEUTROPHIL (120 h, time 5 day) was 13.3% and the “PLATELET COUNT” value (120 h, time 5 day) was 1518.75 x10E3/uL. For the same compound, the “ALANINE AMINOTRANSFERASE” value (120 h, time 5 day) was 31.25 u/L, the ALBUMIN (120 h, time 5 day) was 3.65 G/DL and the “ALKALINE PHOSPHATASE” value (120 h, time 5 day) was 212.25 u/L. The “ASPARTATE AMINOTRANSFERASE” value (120 h, time 5 day) was 78.25 u/L, the “BLOOD UREA NITROGEN” value (120 h, time 5 day) was 9.25 mg/dL and the CHLORIDE (120 h, time 5 day) was 108 MEQ/L. For the same compound, the CHOLESTEROL (120 h, time 5 day) was 61 mg/dL, the “CREATINE PHOSPHOKINASE” value (120 h, time 5 day) was 190.25 u/L and the CREATININE (120 h, time 5 day) was 0.53 mg/dL. The GLUCOSE (120 h, time 5 day) was 111 mg/dL, the “LACTATE DEHYDROGENASE” value (120 h, time 5 day) was 112.75 u/L and the LIPASE (120 h, time 5 day) was 16.75 u/L. It also gave a PHOSPHORUS (120 h, time 5 day) of 12.3 mg/dL, a POTASSIUM (120 h, time 5 day) of 6.75 MEQ/L and an SODIUM (120 h, time 5 day) of 151.5 MEQ/L. The “TOTAL BILIRUBIN” value (120 h, time 5 day) was 0.23 mg/dL, the “TOTAL PROTEIN” value (120 h, time 5 day) was 6.07 G/DL and the “URIC ACID” value (120 h, time 5 day) was 0.72 mg/dL. For the same compound, the ABSOLUTE BASOPHIL (2184 h, time 91 day) was 340 cells/µL, the ABSOLUTE EOSINOPHIL (2184 h, time 91 day) was 100 cells/µL and the ABSOLUTE LYMPHOCYTE (2184 h, time 91 day) was 10400 cells/µL. It also gave an ABSOLUTE MONOCYTE (2184 h, time 91 day) of 180 cells/µL, an ABSOLUTE SEGMENTED NEUTROPHIL (2184 h, time 91 day) of 1510 cells/µL and a BASOPHIL (2184 h, time 91 day) of 2.59%. The EOSINOPHIL (2184 h, time 91 day) was 0.83%, the “ERYTHROCYTE COUNT” value (2184 h, time 91 day) was 9.33 x10E6/uL and the HEMATOCRIT (2184 h, time 91 day) was 49.58%. The HEMOGLOBIN (2184 h, time 91 day) was 16.44 G/DL, the “LEUKOCYTE COUNT” value (2184 h, time 91 day) was 12.6 x10E3/uL and the LYMPHOCYTE (2184 h, time 91 day) was 82.74%. For the same compound, the “MEAN CORPUSCULAR HEMOGLOBIN” value (2184 h, time 91 day) was 17.63 pg, the “MEAN CORPUSCULAR HEMOGLOBIN CONCENTRATION” value (2184 h, time 91 day) was 33.15 G/DL and the “MEAN CORPUSCULAR VOLUME” value (2184 h, time 91 day) was 53.18 fL. For the same compound, the MONOCYTE (2184 h, time 91 day) was 1.38%, the NEUTROPHIL (2184 h, time 91 day) was 12.04% and the “PLATELET COUNT” value (2184 h, time 91 day) was 1261.8 x10E3/uL. For the same compound, the “ALANINE AMINOTRANSFERASE” value (2184 h, time 91 day) was 28.3 u/L, the ALBUMIN (2184 h, time 91 day) was 3.77 G/DL and the “ALKALINE PHOSPHATASE” value (2184 h, time 91 day) was 94.2 u/L. The “ASPARTATE AMINOTRANSFERASE” value (2184 h, time 91 day) was 64.7 u/L, the “BLOOD UREA NITROGEN” value (2184 h, time 91 day) was 15.9 mg/dL and the CHLORIDE (2184 h, time 91 day) was 103.2 MEQ/L. For the same compound, the CHOLESTEROL (2184 h, time 91 day) was 70.3 mg/dL, the “CREATINE PHOSPHOKINASE” value (2184 h, time 91 day) was 80.9 u/L and the CREATININE (2184 h, time 91 day) was 0.54 mg/dL. The GLUCOSE (2184 h, time 91 day) was 152 mg/dL, the “LACTATE DEHYDROGENASE” value (2184 h, time 91 day) was 46.3 u/L and the LIPASE (2184 h, time 91 day) was 18.7 u/L. It also gave a PHOSPHORUS (2184 h, time 91 day) of 8.35 mg/dL, a POTASSIUM (2184 h, time 91 day) of 6.21 MEQ/L and an SODIUM (2184 h, time 91 day) of 149.8 MEQ/L. The “TOTAL BILIRUBIN” value (2184 h, time 91 day) was 0.21 mg/dL, the “TOTAL PROTEIN” value (2184 h, time 91 day) was 7.38 G/DL and the “URIC ACID” value (2184 h, time 91 day) was 0.89 mg/dL. For the same compound, the ABSOLUTE BASOPHIL ([…], time 28 day) was 200 cells/µL, the ABSOLUTE EOSINOPHIL ([…], time 28 day) was 76 cells/µL and the ABSOLUTE LYMPHOCYTE ([…], time 28 day) was 13000 cells/µL. The ABSOLUTE MONOCYTE ([…], time 28 day) was 200 cells/µL, the ABSOLUTE SEGMENTED NEUTROPHIL ([…], time 28 day) was 1710 cells/µL and the BASOPHIL ([…], time 28 day) was 1.28%. The EOSINOPHIL ([…], time 28 day) was 0.48%, the “ERYTHROCYTE COUNT” value ([…], time 28 day) was 8.57 x10E6/uL and the HEMATOCRIT ([…], time 28 day) was 47.9%. The HEMOGLOBIN ([…], time 28 day) was 15.96 G/DL, the “LEUKOCYTE COUNT” value ([…], time 28 day) was 15.29 x10E3/uL and the LYMPHOCYTE ([…], time 28 day) was 85.76%. The “MEAN CORPUSCULAR HEMOGLOBIN” value ([…], time 28 day) was 18.62 pg, the “MEAN CORPUSCULAR HEMOGLOBIN CONCENTRATION” value ([…], time 28 day) was 33.3 G/DL and the “MEAN CORPUSCULAR VOLUME” value ([…], time 28 day) was 55.92 fL. For the same compound, the MONOCYTE ([…], time 28 day) was 1.36%, the NEUTROPHIL ([…], time 28 day) was 10.8% and the “PLATELET COUNT” value ([…], time 28 day) was 1456 x10E3/uL. For the same compound, the “ALANINE AMINOTRANSFERASE” value ([…], time 28 day) was 26.4 u/L, the ALBUMIN ([…], time 28 day) was 3.66 G/DL and the “ALKALINE PHOSPHATASE” value ([…], time 28 day) was 157.4 u/L. The “ASPARTATE AMINOTRANSFERASE” value ([…], time 28 day) was 65.6 u/L, the “BLOOD UREA NITROGEN” value ([…], time 28 day) was 13.6 mg/dL and the CHLORIDE ([…], time 28 day) was 104 MEQ/L. For the same compound, the CHOLESTEROL ([…], time 28 day) was 49.8 mg/dL, the “CREATINE PHOSPHOKINASE” value ([…], time 28 day) was 102 u/L and the CREATININE ([…], time 28 day) was 0.46 mg/dL. The GLUCOSE ([…], time 28 day) was 153.8 mg/dL, the “LACTATE DEHYDROGENASE” value ([…], time 28 day) was 60 u/L and the LIPASE ([…], time 28 day) was 19 u/L. For the same compound, the PHOSPHORUS ([…], time 28 day) was 9.14 mg/dL, the POTASSIUM ([…], time 28 day) was 5.7 MEQ/L and the SODIUM ([…], time 28 day) was 151 MEQ/L. The “TOTAL BILIRUBIN” value ([…], time 28 day) was 0.22 mg/dL, the “TOTAL PROTEIN” value ([…], time 28 day) was 6.76 G/DL and the “URIC ACID” value ([…], time 28 day) was 0.26 mg/dL.
